Data on 5 molecules can be found in US20250290117A1, “MOLECULAR PHENOTYPIC ANTIMICROBIAL SUSCEPTIBILITY TESTING” (priority 2024, published 2025).

Test [1] deals with Escherichia coli. Kind of test: Molecular phenotypic antimicrobial susceptibility test (extraction or DNA purification prior to PCR). The format is cell-based. How it is done: (§1) Detection of Molecular Phenotypic Antimicrobial Susceptibility. Disclosed herein are the methods for the detection of phenotypic antimicrobial susceptibility via molecular methods. The present invention describes how a specimen 100 with a known microbial load is incubated and then exposed to a panel of antimicrobial agents to determine sensitivity (prevention of growth) or resistance (allowance of growth) to the specific antimicrobial agents tested utilizing molecular methods.
Sample Collection. Specimens 100 are collected from patients using sterile collection processes that are employed in routine clinical care. Specimens are transported to the testing facility in boric acid preservative.
Preparation of the Specimens for Testing. […] The process for pathogen isolation includes steps of harvesting the pathogen (e.g., via centrifugation), isolating pathogen DNA via a DNA isolation and/or purification kit, and performing PCR on the pathogen DNA via PCR components (e.g., primers, enzymes, buffers) as would be known to the skilled artisan. […] This aliquot is used for antimicrobial susceptibility testing if indicated based on the pathogen detection results. […] Specimens 100 with lower pathogen loads could also be utilized in the antibiotic susceptibility phase of testing with or without a longer incubation period.
(§2) Preparation of Antimicrobial Susceptibility Testing Plates. Antimicrobial solutions are prepared at known concentrations. The specific antimicrobials and their concentrations are selected based on the pathogen of interest and the described antimicrobial resistance breakpoints for that specimen pathogen and antimicrobial combination. These antimicrobials have been selected based on those commonly utilized by healthcare providers in routine clinical care for the specific type of suspected infection. The number and types of antimicrobials utilized can be customized based on the infection source, pathogen detected, patient-specific factors such as allergies or other health conditions (e.g., chronic kidney disease or concurrent medication use), or healthcare provider preferences such as antimicrobial availability or cost.
The antimicrobial solutions are prepared in liquid culture media (such as Muller Hinton Broth) to achieve the desired antimicrobial concentration and are then stored at −80° C. until use. For a given specimen, each antimicrobial is tested at a single or multiple antimicrobial concentration(s) which is its established breakpoints for sensitivity. The antimicrobial solutions are prepared and plated out for each specific pathogen. […] This allows for evaluation of pathogen load when no antimicrobial is present.
Specimen Exposure to Antimicrobial Agents. The 1 mL aliquot of the specimen 100 previously mixed with culture media and incubated is obtained. Using optical density measurements as a guide, the specimen 100 is diluted to 0.5 McFarland.
Antimicrobial exposure plates are typically placed into an incubator for 12-16 hours.
Nucleic Acid Amplification of Antimicrobial Agent Exposed Pathogens. The antimicrobial exposure plate is removed after the period of incubation. The specimen then undergoes a purification or lysis step. For example, the specimen may undergo a purification step (e.g., magnetic bead-based or other separation protocol to isolate genetic material). In another example, the specimen may undergo a cell lysis step. For example, buffer (e.g., lysis buffer) may be added and incubated in the thermal cycler for preparation for direct PCR. Next, the specimen may undergo a polymerase chain reaction (PCR) testing protocol, whereby a semi-quantitative PCR method is utilized. This may be completed either with or without a specific extraction protocol step. The pathogens can be individually targeted and detected, or a universal genetic sequence can be utilized to detect the antimicrobial susceptibility of the specimen as a whole.

In test [2] the test system is Escherichia coli. Kind of test: Traditional culture-based antimicrobial susceptibility test. The test is classed as cell-based. The text has this: Table 3 illustrates the results of an example antimicrobial agent susceptibility test of the current application versus a traditional culture-based antimicrobial agent susceptibility test for multiple Escherichia coli isolates, in accordance with one or more embodiments of the disclosure. These specimens underwent extraction or DNA purification prior to PCR. As in Tables 1 and 2, the results of the test of the current application are similar to the results from the traditional test. […]
Table 8 illustrates the results of an example antimicrobial agent susceptibility test of the current application versus a traditional culture-based antimicrobial agent susceptibility test for a low level positive with <10,000 cells/mL in the original specimen. These specimens were tested with direct PCR (e.g., no extraction DNA purification step prior to PCR) after 16 hours of incubation. As in Tables 1, 2, 3, 5, and 7, the results of the test are similar to the traditional test. […]

A further test deals with M. morganii. Briefly: Molecular phenotypic antimicrobial susceptibility test, specimen with two detected pathogens incubated together without isolation. To be noted: M. morganii in specimen with two detected pathogens (E. coli and M. morganii) incubated together; for Ct of Sensitive Breakpoint: Ct of controls (average) 19.99; for Molecular Antimicrobial Susceptibility Result: at sensitive breakpoint. The format is cell-based, Morganella morganii. The protocol: as §1
Sample Collection. Specimens 100 are collected from patients using sterile collection processes that are employed in routine clinical care. Specimens are transported to the testing facility in boric acid preservative. Specimens 100 are subsequently divided into a first sample 104 and a second sample 108.
Preparation of the Specimens for Testing. The specimens 100 are put through a pathogen identification process using PCR technology (e.g., using the first sample 104). The process for pathogen isolation includes steps of harvesting the pathogen (e.g., via centrifugation), isolating pathogen DNA via a DNA isolation and/or purification kit, and performing PCR on the pathogen DNA via PCR components (e.g., primers, enzymes, buffers) as would be known to the skilled artisan. Simultaneously, an additional aliquot of the same specimen (e.g., the second sample 108) is placed with liquid culture media and incubated for 4-6 hours. This aliquot is used for antimicrobial susceptibility testing if indicated based on the pathogen detection results. After pathogen identification is completed and if more than 10,000 cells/mL of bacteria (e.g., eligible bacteria) are detected in the source specimen, the second sample 108 then enters the antimicrobial susceptibility phase of testing. Specimens 100 with lower pathogen loads could also be utilized in the antibiotic susceptibility phase of testing with or without a longer incubation period.
as §2
The antimicrobial solutions are prepared in liquid culture media (such as Muller Hinton Broth) to achieve the desired antimicrobial concentration and are then stored at −80° C. until use. For a given specimen, each antimicrobial is tested at a single or multiple antimicrobial concentration(s) which is its established breakpoints for sensitivity. The antimicrobial solutions are prepared and plated out for each specific pathogen. This allows ease of use on the day of testing after defrosting the plate 112. Table 1, which illustrates the results of molecular phenotypic antimicrobial susceptibility testing when more than one organism is present in the source specimen, provides an example of an antimicrobial plate 112 prepared for this purpose. Of note, control wells containing only culture media are present on all plates 112. This allows for evaluation of pathogen load when no antimicrobial is present.
Specimen Exposure to Antimicrobial Agents. The 1 mL aliquot of the specimen 100 previously mixed with culture media and incubated is obtained. Using optical density measurements as a guide, the specimen 100 is diluted to 0.5 McFarland. […]

The mark [3] stands for this setting: E. coli isolate 1, Ct at control (average) 21.238.
The mark [4] stands for this setting: E. coli isolate 1, at sensitive breakpoint.
Where [5] appears, read: E. coli isolate 2, Ct at control (average) 21.270.
[6] abbreviates: E. coli isolate 2, at sensitive breakpoint.
Setting [7] is: E. coli isolate 3, Ct at control (average) 22.0995.
Setting [8] is: E. coli isolate 3, at sensitive breakpoint.
Setting [9] is: E. coli isolate 4, Ct at control (average) 17.5733.
[10] abbreviates: E. coli isolate 4, at sensitive breakpoint.
Where [11] appears, read: E. coli isolate 5, Ct at control (average) 21.0933.
Setting [12] is: E. coli isolate 5, at sensitive breakpoint.
[13] abbreviates: E. coli #1 - WDCM 00090 - 6.2×E3.
Setting [14] is: E. coli #2 - WDCM 00090 - 6.2×E3.

The structures appear in SMILES notation.

In the case of `CO/N=C(\C(=O)N[C@@H]1C(=O)N2C(C(=O)O)=C(CSc3nc(=O)c(=O)[nH]n3C)CS[C@H]12)c1csc(N)n1` [Ceftriaxone], the “Ct at Sensitive Breakpoint” value is on record as 19.368 with Escherichia coli [1] (setting [3]); 20.665 in the test with Escherichia coli [1] (setting [5]); 18.979 in the test on Escherichia coli [1] (setting [7]); 17.74 in the test with Escherichia coli [1] (setting [9]); 25.48 in the test with Escherichia coli [1] (setting [11]). Also, the “Molecular Antimicrobial Susceptibility Result” value is reported as “Resistant” in the test on Escherichia coli [1] (setting [4]); “Resistant” in the test on Escherichia coli [1] (setting [6]); “Resistant” with Escherichia coli [1] (setting [8]); “Resistant” in the test with Escherichia coli [1] (setting [10]); “Sensitive (Antimicrobial wells with pathogen load detected below the control wells (typically >2 cycle thresholds later) may be reported as Sensitive)” in the test on Escherichia coli [1] (setting [12]); “Sensitive (Antimicrobial wells with pathogen load detected below the control wells (typically >2 cycle thresholds later) may be reported as Sensitive)” in the test with M. morganii. Moreover, the “Traditional Culture Results” value in the test on Escherichia coli [2] (setting [13]) and in the test with Escherichia coli [2] (setting [14]) was “Sensitive” in each case. Besides, the “Traditional Culture Result” value in the test on Escherichia coli [2] (E. coli isolate 1 (Table 3)) is reported as “Resistant”; in the test with Escherichia coli [2] (E. coli isolate 2 (Table 3)) it was “Resistant”; in the test on Escherichia coli [2] (E. coli isolate 3 (Table 3)) it was “Resistant”; in the test on Escherichia coli [2] (E. coli isolate 4 (Table 3)) it was “Resistant”; in the test with Escherichia coli [2] (E. coli isolate 5 (Table 3)), “Sensitive”; with Escherichia coli [2] (E. coli isolate JJ1887), “Resistant”. Further, in the test on M. morganii, the “Ct of Sensitive Breakpoint” value was 30.03.

For the molecule `CN(C)[C@@H]1C(O)=C(C(N)=O)C(=O)[C@@]2(O)C(O)=C3C(=O)c4c(O)cccc4[C@@](C)(O)[C@H]3C[C@@H]12` [Tetracycline], in the test on M. morganii, the “Ct of Sensitive Breakpoint” value is recorded as 31.64 and the “Molecular Antimicrobial Susceptibility Result” value was “Sensitive (Antimicrobial wells with pathogen load detected below the control wells (typically >2 cycle thresholds later) may be reported as Sensitive)”.

On to `C[C@@H]1O[C@@H]1P(=O)(O)O` [Fosfomycin], for which, in the test with Escherichia coli [2] (setting [13]), the “Traditional Culture Results” value is reported as “Sensitive”. Besides, in the test on Escherichia coli [2] (setting [14]), the “Traditional Culture Results” value is given as “Sensitive”. In addition, in the test on M. morganii, the “Ct of Sensitive Breakpoint” value is given as 33.43 and the “Molecular Antimicrobial Susceptibility Result” value was “Sensitive (Antimicrobial wells with pathogen load detected below the control wells (typically >2 cycle thresholds later) may be reported as Sensitive)”.

`C[C@H]1COc2c(N3CCN(C)CC3)c(F)cc3c(=O)c(C(=O)O)cn1c23` [Levofloxacin]: the “Ct at Sensitive Breakpoint” value was 20.768 in the test on Escherichia coli [1] (setting [3]); 19.100 in the test on Escherichia coli [1] (setting [5]); 29.342 in the test on Escherichia coli [1] (setting [7]); 17.88 with Escherichia coli [1] (setting [9]); 33.85 in the test on Escherichia coli [1] (setting [11]). The “Molecular Antimicrobial Susceptibility Result” value in the test on Escherichia coli [1] (setting [4]) was “Resistant”; with Escherichia coli [1] (setting [6]), “Resistant”; in the test with Escherichia coli [1] (setting [8]), “Resistant”; in the test on Escherichia coli [1] (setting [10]), “Resistant”; in the test on Escherichia coli [1] (setting [12]), “Sensitive (Antimicrobial wells with pathogen load detected below the control wells (typically >2 cycle thresholds later) may be reported as Sensitive)”; in the test on M. morganii it was “Sensitive (Antimicrobial wells with pathogen load detected below the control wells (typically >2 cycle thresholds later) may be reported as Sensitive)”. The “Ct of Sensitive Breakpoint” value in the test with M. morganii stood at 29.62.

With `O=C1CN(/N=C/c2ccc([N+](=O)[O-])o2)C(=O)N1` [Nitrofurantoin], the “Ct at Sensitive Breakpoint” value in the test on Escherichia coli [1] (setting [3]) was found to be 35.690; in the test with Escherichia coli [1] (setting [5]), 30.495; with Escherichia coli [1] (setting [7]), 21.722; in the test with Escherichia coli [1] (setting [9]), 32.06; in the test with Escherichia coli [1] (setting [11]), 33.53. For the same molecule, the “Molecular Antimicrobial Susceptibility Result” value with Escherichia coli [1] (setting [4]), in the test on Escherichia coli [1] (setting [6]), with Escherichia coli [1] (setting [8]), with Escherichia coli [1] (setting [10]), in the test with Escherichia coli [1] (setting [12]) and in the test with M. morganii was “Sensitive (Antimicrobial wells with pathogen load detected below the control wells (typically >2 cycle thresholds later) may be reported as Sensitive)” each time. For the same molecule, the “Ct of Sensitive Breakpoint” value in the test with M. morganii was determined as 33.37.
